The test system of one data set is rats. As to the kind of experiment: Standard "open field" test (50 percent decrease in the number of diameter crossings vs untreated controls). It counts as in vivo. The conditions noted are these: Rattus norvegicus, po, read-out: ED50 (dosage which caused a 50 percent decrease in the number of diameter crossings). From the text:
The dosage which caused a 50 percent decrease (in comparison to the untreated controls) in the number of diameter crossings is expressed as the ED50.

Another data set can be described thus: Toxicity (mouse), p.o. The conditions noted are these: in vivo, po.

These results are taken from patent US3951987A, “Tetrahydropyridine derivatives” (priority 1975, dated 1976).

For `CCC(=O)Nc1ccc(OCCN2CC=C(c3ccc(F)cc3)CC2)cc1` [4'-[2-[4-(p-fluoro-phenyl)-3,6-dihydro-1(2H)-pyridyl)-ethoxy]-propionanilide], the ED50 – broadly, the dose that gives a 50% effect, or the effect in half of the subjects – in the data set on rats was 0.6 mg/kg. Besides, the median lethal dose (LD50) (in general, the dose expected to kill half of the subjects tested) in “Toxicity (mouse), p.o.” was in the range of 150 to 300 mg/kg.

For `CC(=O)Nc1ccc(OCCN2CC=C(c3ccc(F)cc3)CC2)cc1` [4'-{2-[4-(p-fluorophenyl)-3,6-dihydro-1(2H)-pyridyl]ethoxy}acetanilide], the ED50 in the data set on rats stood at 0.6 mg/kg. In addition, the LD50 in the data set “Toxicity (mouse), p.o.” lay within 250 to 500 mg/kg.

Take `Nc1ccc(OCCN2CC=C(c3ccc(F)cc3)CC2)cc1` [p-[2-[4-(p-fluoro-phenyl)-3,6-dihydro-1(2H)-pyridyl]-ethoxy]-aniline]: the ED50 with rats is 0.6 mg/kg. The molecule also had an LD50 in the data set “Toxicity (mouse), p.o.” of 250 to 500 mg/kg.
